Experimental data as given in article PMC7996328, “Design, Synthesis, and Biological Evaluation of a Series of 5- and 7-Hydroxycoumarin Derivatives as 5-HT1A Serotonin Receptor Antagonists” (Pharmaceuticals, 2021).
Like-named read-outs stand apart in the source and are kept apart here.

Legend:
5-HT1A receptor = target: T1, 5-HT1A receptor (Rattus norvegicus, UniProt P19327); assay: Antagonist activity for the 5-HT1A receptor, [35S]GTPγS assay in hippocampal homogenates; assay type: biochemical; conditions: 8-OH-DPAT 1.4 × 10^−7 M, mean ± SEM; for EC50: antagonistic activity
T1 construct: Hippocampal homogenates (15 μg/mL) were added to each tube as the 5-HT1A receptor source; from tissue; host or cells: rat hippocampus (male Sprague-Dawley), membrane homogenate
T1 sequence (P19327 1-422): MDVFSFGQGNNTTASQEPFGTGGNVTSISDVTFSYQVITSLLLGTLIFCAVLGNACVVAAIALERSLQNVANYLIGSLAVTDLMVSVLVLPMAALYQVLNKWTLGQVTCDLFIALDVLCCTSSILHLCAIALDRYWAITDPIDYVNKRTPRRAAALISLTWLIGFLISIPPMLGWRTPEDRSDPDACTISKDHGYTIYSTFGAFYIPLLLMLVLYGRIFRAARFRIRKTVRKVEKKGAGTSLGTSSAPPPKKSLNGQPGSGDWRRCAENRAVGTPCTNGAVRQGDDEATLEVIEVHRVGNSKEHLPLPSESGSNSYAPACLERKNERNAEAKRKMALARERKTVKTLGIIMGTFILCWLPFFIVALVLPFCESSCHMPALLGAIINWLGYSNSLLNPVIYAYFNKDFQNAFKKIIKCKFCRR
Method: Male Sprague–Dawley rats were decapitated, their brains removed, and placed on ice. Hippocampi were dissected and homogenized with a glass homogenizer in 30 vol. ice-cold TED buffer (50 mM Tris-HCl, 1 mM EDTA, 1mM dithiotheritol, pH 7.4). Next, the homogenate was centrifuged at 21,000× g for 30 min at 4 °C. […] The suspension was centrifuged again at 21,000× g for 30 min at 4 °C. The pellet was resuspended in 30 vol. TED buffer (pH 7.4) and the centrifugation step was repeated. The final pellet was suspended in 10 vol 50 mM Tris-HCl (pH 7.4) and stored at −80 °C until use.
Serial dilutions of the compounds tested (10^−10–10^−5 M) were incubated in triplicate with 0.8 nM [^35S]GTPγS in assay buffer (50 mM Tris-HCl, pH = 7.4, 1 mM EGTA, 3 mM MgCl2, 100 mM NaCl, 30 µM GDP) and 8-OH-DPAT (final concentration 1.4 × 10^−7 M) in the final assay volume of 250 µL. Hippocampal homogenates (15 μg/mL) were added to each tube as the 5-HT1A receptor source. […] Non-specific binding was determined with 10 µM of unlabeled GTPγS. […] Next, 96-well Unifilter® Plates (Perkin Elmer, Waltham, MA, USA) were presoaked for 1 h with 50 mM Tris-HCl (pH = 7.4) before harvesting. The reaction was terminated by vacuum filtration onto filter plates with the FilterMate Harvester® (Perkin Elmer, Waltham, MA, USA). The samples were then rapidly washed with 2 mL of 50 mM Tris-HCl (pH = 7.4) buffer. Filter plates were dried for 2 h at 50 °C. After drying, 45 µL of EcoScint-20 scintillant (Perkin Elmer) was added to every well. Radioactivity was counted in a Trilux MicroBeta^2 counter (Perkin Elmer). Data were analyzed with GraphPad Prism 5.0 software (GraphPad Software, San Diego, CA, USA, www.graphpad.com). Curves were fitted with a one-site non-linear regression model. Efficacy (Emax) and half maximal inhibitory concentration (IC50) were calculated from the Cheng–Prusoff equation and expressed as means ± SEM.

5-HT2A receptor = target: T2, 5-HT2A receptor (Rattus norvegicus, UniProt P14842); assay: 5-HT2A competition binding assay, [3H]ketanserin, frontal cortex homogenates; conditions: [3H]ketanserin 1 nM
T2 construct: from tissue; host or cells: rat frontal cortex (male SD), membrane homogenate
T2 sequence (P14842 whole entry): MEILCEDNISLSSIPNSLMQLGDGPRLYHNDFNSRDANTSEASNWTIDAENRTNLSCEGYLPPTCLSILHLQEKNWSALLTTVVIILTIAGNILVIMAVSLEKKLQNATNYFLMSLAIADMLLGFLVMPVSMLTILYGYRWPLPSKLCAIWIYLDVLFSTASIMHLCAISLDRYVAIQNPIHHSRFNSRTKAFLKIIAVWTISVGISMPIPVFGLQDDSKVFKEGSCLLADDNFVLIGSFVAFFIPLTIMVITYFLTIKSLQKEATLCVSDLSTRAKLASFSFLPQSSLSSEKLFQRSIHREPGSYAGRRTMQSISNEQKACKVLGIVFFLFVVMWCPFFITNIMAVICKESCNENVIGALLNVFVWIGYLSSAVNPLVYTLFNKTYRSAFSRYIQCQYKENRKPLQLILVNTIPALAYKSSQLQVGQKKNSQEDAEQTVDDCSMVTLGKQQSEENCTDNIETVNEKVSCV
Method: Male SD rats were decapitated and their brains removed and placed on ice. Frontal cortices were homogenized with a glass homogenizer in 30 vol ice-cold homogenization buffer (50 mM Tris-HCl. 1 mM EDTA. 5 mM MgCl2. pH 7.4). Next, the homogenate was centrifuged at 20,000× g for 15 min at 4 °C. […] The suspension was again centrifuged at 20,000× g for 15 min at 4 °C. The pellet was resuspended in 10 vol. 50 mM Tris-HCl (pH 7.4) and the centrifugation step was repeated. The final pellet was suspended in 10 vol 50 mM Tris-HCl (pH 7.4) and stored at −80 °C.
Non-specific binding was determined in the presence of 10 μM mianserin. After incubation, the reaction mixture was deposited onto UniFilter-96 GF/B plates with the aid of a FilterMate-96 Harvester. Filter plates were presoaked beforehand with 0.4% PEI for 1 h. Next, each filter well was washed with 1.75 mL of 50 mM Tris-HCl (pH 7.4) and left to dry on a heating block set to 50 °C for 2 h. Then 45 µL of Microscint-20 scintillation fluid was added to each filter well and left to equilibrate overnight. Filter-bound radioactivity was counted in a MicroBeta^2 Microplate Counter. Binding curves were fitted with one site non-linear regression. Affinity was presented as the inhibitory constant (pKi ± SEM and Ki ± SEM) from two or three separate experiments.

[1] = read-out: Ki (nM ± SEM) (converted)
[2] = read-out: pKi (M ± SEM) (converted)

Row | SMILES | melting point [°C] | IC50 (5-HT1A receptor) [µM] | EC50 (5-HT1A receptor) [nM] | Ki (5-HT2A receptor; [1]) [nM] | Ki (5-HT2A receptor; [2]) [nM]
1 | CC(=O)c1c(OCCN2CCN(c3ccccc3Br)CC2)ccc2c(C)cc(=O)oc12 [Compound 6f, 8-acetyl-7-(2-[4-(2-bromophenyl)piperazin-1-yl]ethoxy)-4-methylchromen-2-one] | 145 to 147 | 50.1 | 46800 | 1500 ± 268 | 
2 | CC(=O)c1c(C)cc2oc(=O)cc(C)c2c1OCCCCCN1CCN(c2cc(C)ccc2C)CC1 [Compound 3d, 6-acetyl-5-(5-(4-(2,5-dimethylphenyl)piperazin-1-yl)pentyloxy)-4,7-dimethyl-2H-chromen-2-one] | 97 to 99 | 10 | 9430 ± 1040 | 1940 ± 388 | 
3 | CC(=O)c1c(C)cc2oc(=O)cc(C)c2c1OCCN1CCN(c2ccccc2Br)CC1 [Compound 4f, 6-acetyl-5-(2-(4-(2-bromophenyl)piperazin-1-yl)ethoxy)-4,7-dimethyl-2H-chromen-2-one] | 83 to 85 | 8.32 | 8320 ± 1500 | 10600 | 
4 | CC(=O)c1c(OCCCCCN2CCN(c3ccccc3F)CC2)ccc2c(C)cc(=O)oc12 [Compound 5b, 8-acetyl-7-(5-[4-(2-fluorophenyl)piperazin-1-yl]penthoxy)-4-methylchromen-2-one] | 95 to 97 | 0.0794 | 82 ± 13.4 | 122 ± 43 | 
5 | CC(=O)c1c(OCCCCCN2CCN(c3cccc(Br)c3)CC2)ccc2c(C)cc(=O)oc12 [Compound 5g, 8-acetyl-7-(5-[4-(3-bromohenyl)piperazin-1-yl]penthoxy)-4-methylchromen-2-one] | 119 to 121 | 25.1 | 21500 | 81 ± 19 | 
6 | COc1ccccc1N1CCN(CCOc2cc(C)cc3oc(=O)cc(C)c23)CC1 [Compound 2a, 5-(2-(4-(2-methoxyphenyl)piperazin-1-yl)ethoxy)-4,7-dimethyl-2H-chromen-2-one] | 146 to 148 | 2 | 1880 ± 427 | 1710 ± 582 | 
7 | CC(=O)c1c(OCCCCCN2CCN(c3ccccc3Br)CC2)ccc2c(C)cc(=O)oc12 [Compound 5f, 8-acetyl-7-(5-[4-(2-bromophenyl)piperazin-1-yl]penthoxy)-4-methylchromen-2-one] | 102 to 103 | 31.6 | 27400 | 108 ± 24 | 110
8 | COc1ccccc1N1CCN(CCCCCOc2cc(C)cc3oc(=O)cc(C)c23)CC1 [Compound 1a, 5-(5-(4-(2-methoxyphenyl)piperazin-1-yl)pentyloxy)-4,7-dimethyl-2H-chromen-2-one] | 66 to 68 | 0.0316 | 29.4 ± 7.3 | 776 ± 187 | 644
9 | CC(=O)c1c(OCCCCCN2CCN(c3cc(C)ccc3C)CC2)ccc2c(C)cc(=O)oc12 [Compound 5d, 8-acetyl-7-(5-[4-(2,5-dimethylphenyl)piperazin-1-yl]penthoxy)-4-methylchromen-2-one] | 92 to 94 | 12.6 | 12900 | 1500 ± 279 | 
10 | Cc1cc(OCCCCCN2CCN(c3cccc(Cl)c3Cl)CC2)c2c(C)cc(=O)oc2c1 [Compound 1i, 5-(5-(4-(2,3-dichlorophenyl)piperazin-1-yl)pentyloxy)-4,7-dimethyl-2H-chromen-2-one] | 162 to 163 | 15.8 | 13700 | 1450 ± 653 | 
11 | CC(=O)c1c(OCCN2CCN(c3ccccc3C#N)CC2)ccc2c(C)cc(=O)oc12 [Compound 6j, 8-acetyl-7-(2-[4-(2-cyanophenyl)piperazin-1-yl]ethoxy)-4-methylchromen-2-one] | 155 to 157 | 7.94 | 7800 ± 1880 | 496 ± 121 | 
12 | CC(=O)c1c(OCCN2CCN(c3ccccc3F)CC2)ccc2c(C)cc(=O)oc12 [Compound 6b, 8-acetyl-7-(2-[4-(2-fluorophenyl)piperazin-1-yl]ethoxy)-4-methylchromen-2-one] | 137 to 139 | 50.1 | 45300 | 1510 ± 344 | 
